Each structure is given as a SMILES string. Converted amounts (≈) assume the structure as drawn. Bounds are passed on as bounds.

The test system of the test is Caenorhabditis elegans. The test can be described thus: Nematocidal against Caenorhabditis elegans N2 assessed as motility after 16 hrs. Type of test: functional. The settings on record: N2, 16 h.
By EC95 is commonly meant the concentration needed for an effect of 95%. In the case of `OC(/C=C/C=C/c1ccccc1)CCc1ccccc1` (stereo not given), the EC95 was more than 100 µg/mL.
With `O=C(CC/C=C/c1ccccc1)CCc1ccccc1` the figure was 9 µg/mL (≈ 34 µM); with `OC(CC/C=C/c1ccccc1)CCc1ccccc1` (stereo not given), 0.7 µg/mL (≈ 2.63 µM); with `O=C(CCc1ccccc1)C[C@@H](O)/C=C/c1ccccc1`, 1 µg/mL (≈ 3.57 µM).
With `CC(=O)OC(CC/C=C/c1ccccc1)CCc1ccccc1` (stereo not given) the figure was 9 µg/mL (≈ 29.2 µM).
